Earlier results on one molecule are cited in paper PMC12238501 (Scientific Reports, 2025).

SMILES strings stand for the structures.

For `Oc1ccc(C=Cc2cc(O)cc(O)c2)cc1` [Resveratrol, 3,4’,5-trihydroxystilbene], the Solubility in water entry was “low solubility in water”.
